{
  "source": "patent EP4094756A1",
  "about": "(priority 2021, dated 2022)",
  "system": "SARS-CoV-2 VOC (Alpha, Beta, and Delta)",
  "test": "SARS-CoV2 VOC testing in Vero cells, standard plaque assay",
  "type": "cell-based",
  "data": [
    {"smiles": "Cc1cc(O)c2c(=O)c3c(O)cc(O)c4c5c(O)cc(O)c6c(=O)c7c(O)cc(C)c8c1c2c(c34)c(c78)c65", "note": "[Hypericin, hypericin]", "values": [
      {"measurement": "drop of virus titers in comparison to DMSO-treated controls", "result": "3-5 log steps"}
    ]}
  ]
}
